Results: patent US4122034A, “Antimicrobial compositions” (Schering Corporation, priority 1975, dated 1978)
≈ marks a conversion by molar mass, not a printed value.

Experiments:
[1] = system: Enterococcus; test: In vitro antibacterial activity, dilution in Mueller Hinton Agar (Table I); assay type: cell-based
Summary of the method: (§1)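 Growth inhibition is scored on agar plates of pH 7.4 under routine conditions, giving the minimum inhibitory concentration.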

[2] = system: Klebsiella; test: as above; assay type: cell-based
Summary of the method: as §1

[3] = system: Proteus mirabilis; test: as above; assay type: cell-based; conditions: Mueller Hinton Agar pH 7.4
Summary of the method: as §1

[4] = system: Proteus vulgaris; test: as above; assay type: cell-based; conditions: strain Napol, Mueller Hinton Agar pH 7.4
Summary of the method: as §1

[5] = system: Pseudomonas acruginosa; test: as above; assay type: cell-based
Summary of the method: as §1

[6] = system: Staphylococcus aureus; test: as above; assay type: cell-based; conditions: Mueller Hinton Agar pH 7.4
Summary of the method: as §1

[7] = system: Streptococcus pyogenes; test: as above; assay type: cell-based
Summary of the method: as §1

[8] = system: Bacteroides corrodens; test: In vitro activity against anaerobes in fluid Thioglycollate medium (Table II); assay type: cell-based; conditions: Eikenella corrodens
Summary of the method: (§2)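 Reported as minimum inhibitory concentration. Testing and any scoring followed standard conditions.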

[9] = system: Bacteroides fragilis; test: as above; assay type: cell-based
Summary of the method: as §2

[10] = system: Bacteroides melaninogenicus; test: as above; assay type: cell-based
Summary of the method: as §2

[11] = system: Clostridium histolyticum; test: as above; assay type: cell-based; conditions: Hathewaya histolytica
Summary of the method: as §2

[12] = system: Clostridium novyi; test: as above; assay type: cell-based
Summary of the method: as §2

[13] = system: Clostridium septicum; test: as above; assay type: cell-based
Summary of the method: as §2

[14] = system: Eubacterium lentum; test: as above; assay type: cell-based; conditions: Eggerthella lenta
Summary of the method: as §2

[15] = system: Peptostreptococcus; test: as above; assay type: cell-based
Summary of the method: as §2

[16] = system: Aspergillus niger 6275; test: In vitro antifungal activity, dilutions in Sabouraud's Dextrose Broth (Table IV); assay type: cell-based; conditions: after 96 hours
Summary of the method: (§3)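 Each entry gives a minimum inhibitory concentration. It comes from broth dilution testing done and scored by standard procedure.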

[17] = system: Aspergillus sp. No. 3; test: as above; assay type: cell-based; conditions: after 96 hours
Summary of the method: as §3

[18] = system: Epidermophyton floccosum; test: as above; assay type: cell-based; conditions: after 96 hours
Summary of the method: as §3

[19] = system: Microsporum distortum; test: as above; assay type: cell-based; conditions: after 96 hours
Summary of the method: as §3

[20] = system: Microsporum nanum; test: as above; assay type: cell-based; conditions: Nannizzia nana; after 96 hours
Summary of the method: as §3

[21] = system: Trichophyton ascoides; test: as above; assay type: cell-based; conditions: after 96 hours
Summary of the method: as §3

[22] = system: Trichophyton discoides; test: as above; assay type: cell-based; conditions: after 96 hours
Summary of the method: as §3

[23] = system: Trichophyton ferrugineum; test: as above; assay type: cell-based; conditions: Microsporum ferrugineum; after 96 hours
Summary of the method: as §3

[24] = system: Trichophyton gallinae; test: as above; assay type: cell-based; conditions: after 96 hours
Summary of the method: as §3

[25] = system: Trichophyton megninii; test: as above; assay type: cell-based; conditions: Trichophyton rubrum; after 96 hours
Summary of the method: as §3

[26] = system: Trichophyton mentagrophytes; test: as above; assay type: cell-based; conditions: 96 h
Summary of the method: as §3

[27] = system: Trichophyton rubrum; test: as above; assay type: cell-based; conditions: 96 h
Summary of the method: as §3

[28] = system: Trichophyton schoenleinii; test: as above; assay type: cell-based; conditions: 96 h
Summary of the method: as §3

[29] = system: Trichophyton soudenense; test: as above; assay type: cell-based; conditions: after 96 hours
Summary of the method: as §3

[30] = system: Trichophyton tonsurans; test: as above; assay type: cell-based; conditions: after 96 hours
Summary of the method: as §3

[31] = system: Tricoderm sp.; test: as above; assay type: cell-based; conditions: after 96 hours
Summary of the method: as §3

[32] = Acute toxicity in mice (Table V); conditions: mouse, in vivo
Description: (§4) All the tests were carried out and (when necessary) scored under standard conditions. "MIC" means "minimum inhibitory concentration."
Acute Toxicity of 2-aminoalkyl-3-phenylindoles of the formula I

[33] = system: T. mentagrophytes; test: Effect against topical T. mentagrophytes infections in guinea pigs (Table VI); assay type: in vivo; parameters: Average Sum of lesion scores, Days 1-5 / Average Sum of lesion scores, Days 1-10: scale not given here; conditions: for Average Sum of lesion scores, Days 1-5: untreated controls 14.8; for Average Sum of lesion scores, Days 1-10: untreated controls 38.2
Description: as §4
Effect of some 2-aminoalkyl-3-phenylindoles of the formula II
against topical T. mentagrophytes infections in guinea pigs.

[34] = system: Trychomonas vaginalis; test: In vitro Anti-Trichomonal activity (Table VII); assay type: cell-based
Description: as §4
In vitro Anti-Trichomonal Activity of some 2-aminoalkyl-3-
phenyl-indenes of formula II.

NCc1[nH]c2ccc(Cl)cc2c1-c1ccc(Cl)cc1Cl [E]
MIC ([1]; pH 7.4, strain 373, Mueller Hinton Agar pH 7.4): 3 µg/mL (≈ 9.21 µM)
MIC ([1]; pH 7.4, strain 0928/72, Mueller Hinton Agar pH 7.4): 3 µg/mL (≈ 9.21 µM)
MIC ([2]; pH 7.4, strain 121, Mueller Hinton Agar pH 7.4): 7.5 µg/mL (≈ 23 µM)
MIC ([2]; pH 7.4, strain 3020, Mueller Hinton Agar pH 7.4): 3 µg/mL (≈ 9.21 µM)
MIC ([2]; pH 7.4, strain AD17, Mueller Hinton Agar pH 7.4): 7.5 µg/mL (≈ 23 µM)
MIC ([2]; pH 7.4, strain AD22, Mueller Hinton Agar pH 7.4): 3 µg/mL (≈ 9.21 µM)
MIC ([2]; pH 7.4, strain G3694, Mueller Hinton Agar pH 7.4): 3 µg/mL (≈ 9.21 µM)
MIC ([3]; pH 7.4, strain Hard): 3 µg/mL (≈ 9.21 µM)
MIC ([3]; pH 7.4, strain Peras): 17.5 µg/mL (≈ 53.7 µM)
MIC [4]: 3 µg/mL (≈ 9.21 µM)
MIC ([5]; pH 7.4, strain 130, Mueller Hinton Agar pH 7.4): 7.5 µg/mL (≈ 23 µM)
MIC ([5]; pH 7.4, strain 138, Mueller Hinton Agar pH 7.4): 17.5 µg/mL (≈ 53.7 µM)
MIC ([5]; pH 7.4, strain 762, Mueller Hinton Agar pH 7.4): 17.5 µg/mL (≈ 53.7 µM)
MIC ([5]; pH 7.4, strain 8709, Mueller Hinton Agar pH 7.4): 7.5 µg/mL (≈ 23 µM)
MIC ([5]; pH 7.4, strain Trav. 1, Mueller Hinton Agar pH 7.4): 17.5 µg/mL (≈ 53.7 µM)
MIC ([6]; 209P, pH 7.4, strain 209P): 3 µg/mL (≈ 9.21 µM)
MIC ([6]; pH 7.4, strain 59N): 3 µg/mL (≈ 9.21 µM)
MIC ([6]; pH 7.4, strain Gray): 3 µg/mL (≈ 9.21 µM)
MIC ([6]; pH 7.4, strain Wood): 3 µg/mL (≈ 9.21 µM)
MIC ([6]; pH 7.4, strain Zeigler): 0.8 µg/mL (≈ 2.46 µM)
MIC ([7]; pH 7.4, strain 27, Mueller Hinton Agar pH 7.4): 3 µg/mL (≈ 9.21 µM)
MIC ([7]; pH 7.4, strain C, Mueller Hinton Agar pH 7.4): 3 µg/mL (≈ 9.21 µM)
MIC ([7]; pH 7.4, strain Cruz, Mueller Hinton Agar pH 7.4): 0.8 µg/mL (≈ 2.46 µM)
MIC ([8]; 48 hrs): 0.75 µg/mL (≈ 2.3 µM)
MIC ([8]; 72 hrs): 3 µg/mL (≈ 9.21 µM)
MIC ([9]; 48 hrs): 0.75 µg/mL (≈ 2.3 µM)
MIC ([9]; 72 hrs): 0.75 µg/mL (≈ 2.3 µM)
MIC ([10]; 48 hrs): 3 µg/mL (≈ 9.21 µM)
MIC ([10]; 72 hrs): 3 µg/mL (≈ 9.21 µM)
MIC ([11]; 48 hrs): 0.3 µg/mL (≈ 0.921 µM)
MIC ([11]; 72 hrs): 0.3 µg/mL (≈ 0.921 µM)
MIC ([12]; 48 hrs): 0.75 µg/mL (≈ 2.3 µM)
MIC ([12]; 72 hrs): 0.75 µg/mL (≈ 2.3 µM)
MIC ([13]; 48 hrs): 0.75 µg/mL (≈ 2.3 µM)
MIC ([13]; 72 hrs): 0.75 µg/mL (≈ 2.3 µM)
MIC ([14]; 48 hrs): 3 µg/mL (≈ 9.21 µM)
MIC ([14]; 72 hrs): 3 µg/mL (≈ 9.21 µM)
MIC ([15]; 48 hrs): 0.75 µg/mL (≈ 2.3 µM)
MIC ([15]; 72 hrs): 0.75 µg/mL (≈ 2.3 µM)
MIC [16]: 17.5 µg/mL (≈ 53.7 µM)
MIC [17]: 17.5 µg/mL (≈ 53.7 µM)
MIC [18]: 3 µg/mL (≈ 9.21 µM)
MIC [19]: 3 µg/mL (≈ 9.21 µM)
MIC [20]: 3 µg/mL (≈ 9.21 µM)
MIC [21]: 7.5 µg/mL (≈ 23 µM)
MIC [22]: 7.5 µg/mL (≈ 23 µM)
MIC [23]: 7.5 µg/mL (≈ 23 µM)
MIC [24]: 17.5 µg/mL (≈ 53.7 µM)
MIC [25]: 3 µg/mL (≈ 9.21 µM)
MIC ([26]; strain A, after 96 hours): 3 µg/mL (≈ 9.21 µM)
MIC ([26]; strain B, after 96 hours): 17.5 µg/mL (≈ 53.7 µM)
MIC ([26]; strain C, after 96 hours): 17.5 µg/mL (≈ 53.7 µM)
MIC ([26]; strain H377, after 96 hours): 7.5 µg/mL (≈ 23 µM)
MIC ([26]; strain Young, after 96 hours): 3 µg/mL (≈ 9.21 µM)
MIC ([27]; strain 3, after 96 hours): 3 µg/mL (≈ 9.21 µM)
MIC ([27]; strain 360, after 96 hours): 3 µg/mL (≈ 9.21 µM)
MIC ([27]; strain Blehl, after 96 hours): 3 µg/mL (≈ 9.21 µM)
MIC ([27]; strain Haggerty, after 96 hours): 3 µg/mL (≈ 9.21 µM)
MIC ([28]; strain 2, after 96 hours): 3 µg/mL (≈ 9.21 µM)
MIC ([28]; strain not given, after 96 hours): 3 µg/mL (≈ 9.21 µM)
MIC [29]: 7.5 µg/mL (≈ 23 µM)
MIC [30]: 7.5 µg/mL (≈ 23 µM)
MIC [31]: 3 µg/mL (≈ 9.21 µM)
LD50 ([32]; Oral): ~700 mg/kg
LD50 ([32]; ip, I.P.): 85 mg/kg
LD50 ([32]; sc, S.C.): 540 mg/kg
Average No. of Days to become negative, Cultures ([33]; concentration 1%): > 22 days
Average No. of Days to become negative, Lesion ([33]; concentration 1%): > 22 days
Average Sum of lesion scores, Days 1-5 ([33]; concentration 1%): 12.6
Average Sum of lesion scores, Days 1-10 ([33]; concentration 1%): 34.2
Average No. of Days to become negative, Cultures ([33]; concentration 4%): 6.6 days
Average No. of Days to become negative, Lesion ([33]; concentration 4%): 9.2 days
Average Sum of lesion scores, Days 1-5 ([33]; concentration 4%): 11.6
Average Sum of lesion scores, Days 1-10 ([33]; concentration 4%): 15.2
IC50 ([34]; 50% suppression, read-out: Minimal Level to Produce 50% Suppression): 14 µg/mL (≈ 43 µM)
IC90 ([34]; 90% suppression, read-out: Minimal Level to Produce 90% Suppression): 28 µg/mL (≈ 86 µM)
